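Five concentrations, 48 hours, 96-well plates. TGI: total growth inhibition.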 Where a SMILES comes first, the peptide text is derived from it. [ ]: non-standard residue; d: D form. The star is where a group is joined. Phe(4-NO2) = N[CH](Cc1ccc([N+](=O)[O-])cc1)C(=O)O; Boc = CC(C)(C)OC(=O)*

Holding throughout (assay): DTP human tumour cell line panel, 48 h
Test [1] concerns A549 NSCLC.
The test system of test [2] is HT29 colon.
Test [3] has as its system NCI-H460 lung.
The test system of test [4] is OVCAR-5 ovarian.
In test [5] the test system is OVCAR-8 ovarian.
Test [6] concerns SF-295 CNS.
For test [7], the system named is SK-MEL-5 melanoma.
The test system of test [8] is UACC-257 melanoma.
Test [9] relates to SN12C renal.
The subject of test [10] is EKVX NSCLC.

For orientation: TGI means the concentration giving total growth inhibition. A lower TGI goes with greater sensitivity of the cells. Take `Cc1ccc(N=C/C=C(\Nc2ccc(C)cc2)c2ccc3ccccc3c2)cc1`: the TGI was 13.2 µM in test [1]; 2.32 µM in [2]; 13.8 µM in test [3]; 6.24 µM in test [4]; more than 100 µM in test [5]; 3.9 µM in [6]. Moreover, the TGI in test [7] was found to be 12 µM; in [8], 16.6 µM.
As to `O=CC(O)C(O)C(O)C(O)COC(=O)NCCCCC(=O)C(F)(F)C(F)(F)C(F)(F)C(F)(F)C(F)(F)C(F)(F)C(F)(F)F` (stereo not drawn), the TGI in test [1] was more than 100 µM; in test [2], more than 100 µM; in [3] it was 67.6 µM; in test [4] it was 33.8 µM; in test [6], 59.3 µM; in test [7] it was 86.8 µM. The same molecule gave a TGI in [9] of more than 100 µM.
Consider `Cc1cc(=O)[nH]c(NNC(C#N)c2ccccc2O)n1` (stereo not drawn), for which the TGI in test [1], in test [2], in test [3], in test [4], in test [5] and in test [6] was more than 100 µM throughout. The TGI is 75.9 µM in [7], more than 100 µM in [9] and more than 100 µM in test [8].
For `CC(=O)OCC1OC(SC2=NC(=O)CS2)C(OC(C)=O)C(OC(C)=O)C1OC(C)=O` (stereo not drawn), the TGI in [1], in [2], in test [3], in [4], in test [5] and in [6] was more than 100 µM throughout. Also, the TGI in test [7], in test [9] and in test [8] was more than 100 µM each time.
For the molecule `CCOC(=O)CCC(NC(=O)C(Cc1ccc([N+](=O)[O-])cc1)NC(=O)OC(C)(C)C)C(=O)NC(CCC(=O)OCC)C(=O)OCC` (stereo not drawn) (Boc-[Phe(4-NO2)]-Glu(OEt)-Glu(OEt)-OEt; configuration not given here), the TGI in test [1] was more than 100 µM; in [2], 31.5 µM; in [3], 57.3 µM; in [4], 46.3 µM; in test [5], 40.3 µM; in test [7], 31.2 µM. The molecule further returned a TGI in test [9] of 49.7 µM.
For the molecule `Oc1c(Cl)cc2cc1-c1cc(cc(Cl)c1O)CCc1c(cc(Cl)c(O)c1Cl)-c1cc(Cl)c(c(Cl)c1O)/C=C\2`, the TGI in test [1] came to 23.9 µM; in test [2], 25.2 µM; in test [3], 13.1 µM; in test [4], 19.5 µM; in test [5], 16.1 µM; in [7], 14.9 µM. In test [8], the TGI was 35.8 µM.
As to `COC(=O)C(Cc1c[nH]c2ccccc12)NC(=O)C(Cc1c[nH]c2ccccc12)NC(=O)C(Cc1c[nH]c2ccccc12)NC(=O)C(Cc1c[nH]c2ccccc12)NC(=O)C(Cc1c[nH]c2ccccc12)NC(=O)C(Cc1c[nH]c2ccccc12)NC(=O)C(Cc1c[nH]c2ccccc12)NC(=O)OC(C)(C)C` (stereo not drawn) (Boc-WWWWWWW-OMe; configuration not given here), the TGI in test [1], in test [2], in test [3], in [4], in [5] and in [7] was more than 100 µM in each case. Further, the TGI in [9] and in test [8] was more than 100 µM in each case.
Turning to `Cc1cn(C2CC(COCc3ccccc3)N(CCO[Si](C)(C)C(C)(C)C)O2)c(=O)[nH]c1=O` (stereo not drawn), the TGI in test [1] was 28.4 µM; in test [2], 28.7 µM; in test [3] it was 35.2 µM; in test [4], 32 µM; in test [5] it was 28.8 µM; in test [6], 29.9 µM. The TGI in test [7] came out at 12.9 µM; in test [9], 25.1 µM.
For the molecule `[N-]=[N+]=Nc1nc2ccccc2c(N=[N+]=[N-])c1Cl`, the TGI in test [1], in test [2], in [3], in [4], in test [6] and in test [7] was more than 100 µM each time. Moreover, the total growth inhibition concentration (TGI) in [9] and in test [8] was more than 100 µM in each case.
Consider `Cc1cc2c(c(C(=O)NCC(=O)O)c1)Oc1c(cc(C)cc1C(=O)NCC(=O)O)S2`, for which the TGI in [1], in [10], in test [2], in test [4], in [5] and in test [6] was more than 100 µM in each case. For the same molecule, the TGI in test [9] and in test [8] was more than 100 µM each time.
Take `Cc1ccc(-n2nncc2[Si](C)(C)C)s1`: the TGI in test [1], in [2], in test [3], in test [4], in test [5] and in [6] was more than 100 µM in each case. Moreover, the TGI in [7], in test [9] and in test [8] was more than 100 µM each time.

Source of the values: PubChem BioAssay (NCI).
